In patent US20240398813A1, “PHARMACEUTICAL COMPOSITION FOR PREVENTING OR TREATING OVERACTIVE BLADDER” (GWANGJU INSTITUTE OF SCIENCE AND TECHNOLOGY, priority 2021, published 2024):

Experiments:
[1] = target: T1, hyperactive mutant BKCa channels (hSlo G803D/N806K) stably expressed in AD 293 cells (Homo sapiens, UniProt Q12791, G856D/N859K); test: Cell-based fluorescence assay (FluxOR Potassium Ion Channel Assay) of BKCa channel activation; details: compounds at 5 μM; n=3; vehicle 0.26
T1 construct: expressed in transfected cells
T1 sequence (Q12791 whole entry G856D/N859K): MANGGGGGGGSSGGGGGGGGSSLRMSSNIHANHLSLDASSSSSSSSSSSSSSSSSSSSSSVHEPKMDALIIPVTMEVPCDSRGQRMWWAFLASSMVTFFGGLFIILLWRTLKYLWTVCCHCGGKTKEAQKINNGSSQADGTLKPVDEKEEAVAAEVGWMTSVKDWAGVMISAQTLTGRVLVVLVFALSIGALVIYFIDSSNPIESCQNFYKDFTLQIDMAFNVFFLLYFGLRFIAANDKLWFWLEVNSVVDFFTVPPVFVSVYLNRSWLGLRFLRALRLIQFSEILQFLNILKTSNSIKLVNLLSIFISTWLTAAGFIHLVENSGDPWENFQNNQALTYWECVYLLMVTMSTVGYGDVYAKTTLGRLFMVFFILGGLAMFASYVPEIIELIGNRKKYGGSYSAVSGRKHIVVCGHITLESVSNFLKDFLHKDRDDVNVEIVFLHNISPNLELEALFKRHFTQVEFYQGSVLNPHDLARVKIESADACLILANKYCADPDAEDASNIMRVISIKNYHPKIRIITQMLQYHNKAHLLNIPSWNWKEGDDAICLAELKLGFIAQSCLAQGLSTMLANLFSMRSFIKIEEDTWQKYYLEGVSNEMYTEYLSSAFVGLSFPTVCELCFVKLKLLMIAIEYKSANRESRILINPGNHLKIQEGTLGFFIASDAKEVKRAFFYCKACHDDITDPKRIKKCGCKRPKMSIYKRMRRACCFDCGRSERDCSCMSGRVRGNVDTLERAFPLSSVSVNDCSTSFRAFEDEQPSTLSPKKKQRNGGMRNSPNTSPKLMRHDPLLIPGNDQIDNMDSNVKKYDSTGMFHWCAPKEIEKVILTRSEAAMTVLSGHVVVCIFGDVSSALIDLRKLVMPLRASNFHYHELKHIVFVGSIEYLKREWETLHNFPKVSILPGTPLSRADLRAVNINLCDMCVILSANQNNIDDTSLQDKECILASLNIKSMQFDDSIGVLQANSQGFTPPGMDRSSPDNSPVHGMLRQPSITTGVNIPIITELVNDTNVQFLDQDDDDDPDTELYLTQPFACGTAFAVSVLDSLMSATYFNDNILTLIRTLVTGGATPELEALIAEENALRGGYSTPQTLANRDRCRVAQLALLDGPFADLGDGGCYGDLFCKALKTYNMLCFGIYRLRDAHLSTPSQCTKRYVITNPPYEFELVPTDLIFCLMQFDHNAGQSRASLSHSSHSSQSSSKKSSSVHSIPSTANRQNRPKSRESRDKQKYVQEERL

[2] = system: Spontaneously hypertensive rats (SHR); test: In vivo model of OAB: urination in spontaneously hypertensive rats after oral administration; parameters: species or system rat; details: 3 hours
Experimental: Male rats with body weights of 300 to 350 g were deprived of food and water overnight before the experiment, and then were randomly divided into a drug administration group and a control group. All animals were provided free access to water for 2 hours, and then 10 mL/kg of vehicle solution [DMSO:PEG400:distilled water=5:40:55 (v/v)] as a test substance were orally administered. After oral administration of the test substance, the rats were placed in a metabolic cage and the number of urinations and urine volume were measured for 3 hours.
The in vivo treatment effects of the compounds for […] were investigated in spontaneously hypertensive rats (SHR) with OAB symptoms after oral administration. Wistar-Kyoto rats (WKY) were used as the healthy animal control, and urination frequency was increased more than 2.8 times in SHR compared to WKY. Compound 208 reduced the urination frequency in SHR (50 mg/kg) by 33%, which is quite close to the urination frequency of the normal group (see FIG. 18).

[3] = target: T2, BKCa channels co-expressed with the β1 subunit (rSlo α + KCNMB1) (Rattus norvegicus, UniProt Q62976); test: Macroscopic current recording, BKCa channels co-expressed with β1 subunits in Xenopus oocytes; format: cell-based; details: 10 μM
T2 construct: expressed in transfected cells; host or cells: Xenopus laevis oocytes, cRNA alpha:beta 1:12
T2 sequence (Q62976 whole entry): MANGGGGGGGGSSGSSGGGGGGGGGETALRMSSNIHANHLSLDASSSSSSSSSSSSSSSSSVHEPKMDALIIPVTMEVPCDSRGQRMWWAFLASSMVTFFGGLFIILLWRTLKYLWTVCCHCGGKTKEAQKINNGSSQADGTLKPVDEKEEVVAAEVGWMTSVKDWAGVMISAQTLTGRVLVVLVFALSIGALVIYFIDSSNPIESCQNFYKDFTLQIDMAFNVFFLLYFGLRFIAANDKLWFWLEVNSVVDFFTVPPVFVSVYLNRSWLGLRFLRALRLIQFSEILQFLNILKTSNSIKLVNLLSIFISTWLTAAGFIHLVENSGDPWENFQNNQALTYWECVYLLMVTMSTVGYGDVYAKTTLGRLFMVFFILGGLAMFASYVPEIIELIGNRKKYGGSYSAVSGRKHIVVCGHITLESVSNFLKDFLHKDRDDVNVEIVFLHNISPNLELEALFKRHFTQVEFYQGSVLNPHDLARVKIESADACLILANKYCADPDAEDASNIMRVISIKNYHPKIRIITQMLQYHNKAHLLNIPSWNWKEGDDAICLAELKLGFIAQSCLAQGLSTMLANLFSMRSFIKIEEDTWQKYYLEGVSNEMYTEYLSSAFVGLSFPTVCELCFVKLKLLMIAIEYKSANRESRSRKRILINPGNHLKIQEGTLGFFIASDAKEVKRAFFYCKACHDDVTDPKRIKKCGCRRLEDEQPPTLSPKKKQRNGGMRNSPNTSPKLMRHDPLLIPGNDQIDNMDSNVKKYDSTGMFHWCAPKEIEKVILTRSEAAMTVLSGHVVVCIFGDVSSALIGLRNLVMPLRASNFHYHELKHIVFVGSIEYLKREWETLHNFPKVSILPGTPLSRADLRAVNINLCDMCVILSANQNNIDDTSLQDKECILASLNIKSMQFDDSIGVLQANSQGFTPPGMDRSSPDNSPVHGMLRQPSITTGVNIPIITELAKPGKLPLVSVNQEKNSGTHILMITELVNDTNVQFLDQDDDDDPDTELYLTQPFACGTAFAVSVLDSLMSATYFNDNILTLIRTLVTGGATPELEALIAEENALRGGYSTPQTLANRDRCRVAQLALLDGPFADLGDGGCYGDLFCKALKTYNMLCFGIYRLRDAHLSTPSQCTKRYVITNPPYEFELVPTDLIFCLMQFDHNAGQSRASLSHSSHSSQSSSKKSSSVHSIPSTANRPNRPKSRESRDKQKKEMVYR
T2 sequence (P97678 whole entry partner): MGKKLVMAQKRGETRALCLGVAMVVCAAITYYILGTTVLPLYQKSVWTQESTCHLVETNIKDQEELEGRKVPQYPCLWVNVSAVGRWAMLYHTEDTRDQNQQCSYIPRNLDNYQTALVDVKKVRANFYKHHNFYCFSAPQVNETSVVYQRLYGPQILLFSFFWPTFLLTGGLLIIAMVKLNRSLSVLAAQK
Description: The complete coding sequence (CDS) of each of rat KCNMA (rSlo α) (GenBank AF135265.1), KCNMB1 (rSlo 01) (GenBank FJ154955.1) and KCNMB4 (rSlo β4) (GenBank AY028605) was subcloned into pNBC2.0 or pNBC2.0. These vectors were designed to be expressed in Xenopus oocytes (Ha, T. S., Lim, H. H., Lee, G. E., Kim, Y. C., & Park, C. S. (2006). Electrophysiological characterization of benzofuroindole-induced potentiation of large-conductance Ca2+-activated K+ channels. Mol Pharmacol, 69(3), 1007-1014). The plasmid was linearized by NotI and complementary RNA (cRNA) was synthesized using the Ambion T7 mMESSAGE mMACHINE kit (Invitrogen, Carlsbad, CA, USA) according to the manufacturer's instructions. Xenopus laevis (KXRCR000001) was obtained from the Korea Xenopus Resource Center for Research (Chuncheon-si, Gangwon-do, Korea). Stage V-VI oocytes were surgically extracted from the ovarian lobes of X. laevis. A follicular cell layer was removed by culturing in Ca^2+-free oocyte Ringer's medium (86 mM NaCl, 1.5 mM KCl, 2 mM MgCl2 and 10 mM HEPES, pH 7.6) containing collagenase for 1.5 hours at room temperature. Oocytes without follicular layer were washed with ND-96 medium (96 mM NaCl, 2 mM KCl, 1.8 mM CaCl2), 1 mM MgCl2, 5 mM HEPES, […] gentamicin, pH 7.6). The prepared oocytes were stabilized overnight at 18° C. cRNA was injected into each oocyte (50 ng per oocyte) using a microdispenser (Drummond Scientific, Broomall, PA, USA). For co-expression of the β subunits, cRNA was mixed at a molar ratio of 1:12 (α:β) to induce sufficient co-assembly of the R subunits. After injection of cRNA, the oocytes were cultured in ND-96 medium for 1-3 days at 18° C. Before recording macroscopic currents, vitelline membranes of the oocytes were completely removed using fine forceps.
All macroscopic current recordings in the BKCa channels were performed using the gigaohm-seal patch-clamp method in an outside-out configuration (Ha et al., 2006). A patch pipette was made of borosilicate glass (WPI, Sarasota, FL, USA) and fire-polished by a resistance of 3-5 MQ. […]

Cc1cccc(NC(=O)c2sc(=S)n3c2[nH]c(=O)c2cc(Br)ccc23)c1 [TTQC-1, 7-bromo-5-oxo-1-thioxo-N-(m-tolyl)-4,5-dihydro-1H-thiazolo[3,4-a]quinazoline-3-carboxamide]
Activity (ΔRFU normalized by activities of LDD175) [1]: 1.06
number of urinary events ([2]; 10 mg/kg oral, SHR vehicle 8.2): 3.0
total urine volume ([2]; oral): significantly reduced
effect on τ activation [3]: changed the τ activation only at 190 mV
increase of τ deactivation ([3]; at 180 mV): 4.6 times
shift of G-V curve to the left ([3]; β1 co-expressed): 23.0±2.67 mV
